Assay [1] concerns phosphorylation of Akt at Serine 473 in U87 MG cells. The assay can be described thus: pAkt AlphaScreen (U87 cell). The assay is classed as cell-based. The following applies: Homo sapiens, U-87 MG, 2 h; pAkt at Serine 473, U87 MG cells, two hours with compound. The protocol:
The pAkt AlphaScreen® assay (PerkinElmer, Waltham, Mass.) determines whether there is phosphorylation of Akt at Serine 473 by recruitment of a phosphospecific antibody. This assay was performed using U87 MG cells. The U87 growth media consists of MEM (Gibco, Carlsbad, Calif.) supplemented with 10% FBS (Gibco), 1× Non-Essential Amino Acids (Gibco,) and 1× Penicillin/Streptomycin/Glutamine (Gibco). The cells were maintained weekly using 0.05% Trypsin (Gibco) and replated in 150 mm TC— Treated Culture Dishes (Corning, Corning, N.Y.).
The first day of the assay, the adherent cells were trypsinized, media was added to the loose cells and cells were mixed to a homogenous mixture. 0.5 ml of the homogenous mixture was counted on the Beckman Coulter® Vi-Cell™ XR (Fullerton, Calif.). 50 frames of cells were counted and the number of viable cells was determined. The cells were then diluted to 0.25 million cells per ml, and centrifuged at 200 rcf for 5 minutes. The media was removed and the cells were reconstituted in fresh media for plating. The cells were plated at 20 μl per well on the PerkinElmer® FlexDrop PLUS in Low Volume 384 Well White Tissue Culture Plates (Corning) with a final cell density of 5K cells per well. The plates were incubated overnight at 37° Celsius, 5% CO2.
On the second day, the compound plates were prepared, the cells were treated with compound and the pAkt reaction mix was added to the cell lysate. 384 well compound plates were prepared containing 1 μl of compound per well starting at 5 mM and diluted 1:2 across the row, resulting in a 22 well serial dilution. 39 μl of growth media was added to the compound plate in rows 1-22 using the PerkinElmer® FlexDrop PLUS resulting in a DMSO concentration of 2.5%. The cell plates and diluted compound plates were put onto the VELOCITY11™ VPREP™ 384 ST where the compound plate was mixed and 5 μl of serially diluted compound or controls was added to the cell plate. The final concentration of the compounds was 25 μM serially diluted to 11.9 pM in 0.5% DMSO.
The cell plates were then incubated with compound for two hours at 37° C., 5% CO2. After two hours, the media in the cell plates was aspirated using the BioTek® ELx405HT plate washer (Winooski, Vt.) removing the majority of media and compound without disturbing the adherent U87 cells. The following assay reagents are components of the SureFire® Akt (Ser 473) Phosphorylation 50K Point Kit (TGR BioSciences, Adelaide, Austalia) and an IgG Detection Kit (PerkinElmer, Waltham, Mass.). 5 μl of 1× Lysis Buffer was added to each well using the PerkinElmer® FlexDrop PLUS. The plates were then incubated at room temperature on a shaker for ten minutes. The AlphaScreen® reaction was prepared under low light conditions (subdued or green light) including p-Aid (Ser 473) Reaction Buffer, Dilution Buffer, Activation Buffer, Acceptor Beads and Donor Beads at a ratio of 40:20:10:1:1 respectively. The AlphaScreen® reaction was added to the cell lysate at 6 μl per well using the PerkinElmer® FlexDrop PLUS. The plates were placed in a humid environment to reduce edge effects and incubated overnight at room temperature with restricted air flow in the dark.
On the final day of the experiment, the plates were read on the PerkinElmer® EnVision™ 2103 Multilable Reader using the standard AlphaScreen® readout. The POC is calculated and the data is analyzed to report the IC50 IP for pAkt at Serine 473.
Activity data for the compounds tested in the PI3K cell based Akt assay is provided in Table 1 under the column heading U87

A further assay deals with T1, PI3Kα (Homo sapiens, UniProt P42336).
T1 construct: Full length p110 subunits of PI3K α, β and δ, N-terminally labeled with polyHis tag; polyHis (N); made in house; host or cells: Sf9 insect cells (baculovirus)
The assay can be described thus: In vitro PI3K AlphaScreen assay, PI3Kα. The class given is biochemical. As to conditions: PI(4,5)P2 substrate, 20 minutes at room temperature, read-out: P13Kalpha IC50 um. The protocol:
The PI3K AlphaScreen® assay (PerkinElmer, Waltham, Mass.) measures the activity of a panel of four phosphoinositide 3-kinases: PI3Kα, PI3KIβ, PI3Kγ, and PI3Kδ. Each of these enzymes phosphorylates the 3′-hydroxyl group on phosphatidylinositiol (4,5)-bisphosphate (PIP2) to produce phosphatidylinositol (3,4,5)-trisphosphate (PIP3). This phosphorylation activity is measured using a GST-tagged PIP3 binding protein (Echelon Biosciences, Salt Lake City, Utah), an anti-GST-tagged Acceptor bead, and streptavidin-Donor bead. The interaction of biotinylated-PIP3 analog (IP4) and the PIP3 binding protein brings both Acceptor and Donor beads together producing, upon excitation of the Donor beads at 680 nm, a singlet oxygen species leading to the luminescent AlphaScreen® signal. When PIP3 is produced via phosphorylation of PIP2 by a PI3K, PIP3 competes with biotinylated-PIP3 analog (IP4) for binding to the PIP3 binding protein. In the absence of this interaction, proximity of the Donor and Acceptor beads is decreased, producing a loss of luminescent signal which is […] to PI3K activity. […] The enzyme reaction buffer is made using sterile water (Baxter, Deerfield, Ill.) and 50 mM Tris HCl pH 7, 14 mM MgCl2, 2 mM sodium cholate, and 100 mM NaCl. 2 mM DTT is added fresh the day of the experiment. The AlphaScreen® reaction buffer is made using sterile water and 10 mM Tris HCl pH 7.5, 150 mM NaCl, 0.10% Tween 20, and 30 mM EDTA. 1 mM DTT is added fresh the day of the experiment. The source plates for this assay are 384-well Greiner clear polypropylene plates containing test compounds at 5 mM and diluted 1:2 over 22 points. Columns 23 and 24 contain only DMSO as these are designated for positive and negative controls. Source plates are replicated into 384-well Optiplates (PerkinElmer, Waltham, Mass.), 0.5 μL/well, to make assay-ready plates. The different PI3K isoforms are each diluted in enzyme reaction buffer to 2× working solutions. PI3Kα is diluted to 1.6 nM, PI3Kβ is diluted to 0.8 nM, PI3Kγ is diluted to 15 nM, and PI3Kδ is diluted to 1.6 nM. Two different 2× substrate solutions are made in enzyme reaction buffer. In one solution, PI(4,5)P2 (Echelon Biosciences, Salt Lake City, Utah) is diluted to 10 μM and ATP is diluted to 20 μM. This solution is used in the assays testing PI3Kα and PI3Kβ. In a second solution, PI(4,5)P2 is diluted to 10 μM and ATP is diluted to 80 μM. This solution is used in the assays testing PI3Kγ and PI3Kδ. The AlphaScreen® reaction solutions are made using beads from the anti-GST AlphaScreen® kit (PerkinElmer, Waltham, Mass.). Two solutions are made in Alphascreen reaction buffer to 4× working concentrations. In one solution, biotinylated-IP4 (Echelon Biosciences, Salt Lake City, Utah) is diluted to 40 nM and streptavadin-Donor Beads are diluted to 80 μg/mL. In the second solution, PIP3-binding protein (Echelon Biosciences, Salt Lake City, Utah) is diluted to 40 nM and anti-GST-Acceptor Beads are diluted to 80 μg/mL. 10 μL/well of enzyme reaction buffer is added to Column 24 of the assay ready plates in place of enzyme. This is done for plates in the PI3Kα, β, and δ assays. Using a 384-well dispensing Multidrop (Titertek, Huntsville, Ala.), 10 μL/well of 2× enzyme (PI3Kα, β, δ) is added to Columns 1-23 of the appropriate assay ready plates (for PI3Kγ 10 μL is added to Columns 1-24). 10 μL/well of the appropriate substrate solution (the solution with 20 μM ATP for PI3Kα and β assays, and the solution with […] for PI3Kγ and δ assays) is then added to Columns 1-24 of the plates. Plates are then incubated at room temperature for 20 minutes. In the dark, 10 μL/well of the Donor Bead solution is added to Columns 1-24 of the plates to quench the enzyme reaction. The plates are incubated at room temperature for 30 minutes. Still in the dark, 10 μL/well of the Acceptor Bead solution is also added to Columns 1-24 of the plates. The plates are then incubated in the dark for 1.5 hours.
A general note: Bead proximity is the source of the signal in Alpha formats.

Molecules are shown by their SMILES.

T1 sequence (P42336 whole entry): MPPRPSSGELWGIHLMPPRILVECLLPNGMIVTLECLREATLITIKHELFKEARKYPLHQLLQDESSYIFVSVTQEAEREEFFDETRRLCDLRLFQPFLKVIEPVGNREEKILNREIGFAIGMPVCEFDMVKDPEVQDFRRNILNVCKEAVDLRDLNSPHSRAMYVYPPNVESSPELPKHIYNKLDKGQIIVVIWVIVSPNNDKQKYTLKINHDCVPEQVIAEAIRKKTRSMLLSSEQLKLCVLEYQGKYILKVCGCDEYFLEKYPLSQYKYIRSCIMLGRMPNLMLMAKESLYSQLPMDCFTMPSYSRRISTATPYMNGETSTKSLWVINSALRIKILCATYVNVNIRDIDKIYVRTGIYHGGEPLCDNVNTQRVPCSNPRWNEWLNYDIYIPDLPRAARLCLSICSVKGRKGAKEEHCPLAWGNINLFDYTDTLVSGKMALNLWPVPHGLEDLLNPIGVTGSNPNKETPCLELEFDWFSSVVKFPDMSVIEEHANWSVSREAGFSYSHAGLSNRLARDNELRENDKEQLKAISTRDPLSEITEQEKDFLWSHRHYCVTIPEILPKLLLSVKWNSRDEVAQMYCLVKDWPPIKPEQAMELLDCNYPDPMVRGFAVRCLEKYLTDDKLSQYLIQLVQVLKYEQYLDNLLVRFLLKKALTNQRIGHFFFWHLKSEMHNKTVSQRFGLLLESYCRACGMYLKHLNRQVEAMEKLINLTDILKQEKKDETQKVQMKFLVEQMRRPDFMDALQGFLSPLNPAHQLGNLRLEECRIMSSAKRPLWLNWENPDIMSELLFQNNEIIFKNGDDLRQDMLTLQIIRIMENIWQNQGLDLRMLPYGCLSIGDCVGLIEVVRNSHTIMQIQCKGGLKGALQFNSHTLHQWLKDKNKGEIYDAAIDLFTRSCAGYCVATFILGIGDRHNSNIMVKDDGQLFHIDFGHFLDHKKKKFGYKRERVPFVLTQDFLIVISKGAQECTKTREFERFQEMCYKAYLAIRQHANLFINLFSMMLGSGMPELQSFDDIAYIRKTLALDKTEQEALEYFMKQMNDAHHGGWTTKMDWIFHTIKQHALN
T1 sequence (P27986 whole entry partner): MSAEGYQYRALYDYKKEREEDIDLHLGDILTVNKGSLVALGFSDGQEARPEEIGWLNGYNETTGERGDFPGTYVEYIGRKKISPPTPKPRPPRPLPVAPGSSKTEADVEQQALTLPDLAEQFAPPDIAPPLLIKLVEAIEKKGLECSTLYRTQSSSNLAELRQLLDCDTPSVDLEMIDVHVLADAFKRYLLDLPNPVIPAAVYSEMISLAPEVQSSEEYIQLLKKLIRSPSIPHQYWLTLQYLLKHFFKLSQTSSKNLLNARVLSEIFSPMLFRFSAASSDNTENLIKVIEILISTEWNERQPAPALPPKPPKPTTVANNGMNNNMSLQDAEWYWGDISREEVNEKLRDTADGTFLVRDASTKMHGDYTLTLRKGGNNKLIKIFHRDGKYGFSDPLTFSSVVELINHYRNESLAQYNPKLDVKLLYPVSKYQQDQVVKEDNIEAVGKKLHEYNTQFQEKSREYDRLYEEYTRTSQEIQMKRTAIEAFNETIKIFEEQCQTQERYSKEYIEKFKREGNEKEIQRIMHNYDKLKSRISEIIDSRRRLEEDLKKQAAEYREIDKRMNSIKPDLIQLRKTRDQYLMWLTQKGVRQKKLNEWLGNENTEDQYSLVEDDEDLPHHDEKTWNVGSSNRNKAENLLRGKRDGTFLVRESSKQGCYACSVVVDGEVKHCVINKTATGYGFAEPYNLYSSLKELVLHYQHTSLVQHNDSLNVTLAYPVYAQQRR

The IC50 is the point on the concentration scale where inhibition reaches its midpoint. As to `Cc1nc(N)cc(-c2c(Nc3ccc(N4CC(O)C4)nc3)nc3cccnn23)n1` [Cpd 272, 1-(5-((3-(6-amino-2-methyl-4-pyrimidinyl)imidazo[1,2-b]pyridazin-2-yl)amino)-2-pyridinyl)-3-azetidinol], the values for the concentration for half-maximal inhibition (IC50) (in assay [1]; at PI3Kα) were 110 nM and 320 nM, respectively.
Turning to `COc1ccc(Nc2nc3ccc(N4CCN(C(C)=O)CC4)cn3c2-c2nc(C)nc(N)n2)cn1` [Cpd 285, 6-(4-acetyl-1-piperazinyl)-3-(4-amino-6-methyl-1,3,5-triazin-2-yl)-N-(6-methoxy-3-pyridinyl)imidazo[1,2-a]pyridin-2-amine], at PI3Kα, the 50% inhibitory concentration (IC50) stood at 90 nM.
Take `Cc1nc(N)cc(-c2c(Nc3cccc(S(C)(=O)=O)c3)nc3cccnn23)n1` [Cpd 94, 3-(6-amino-2-methyl-4-pyrimidinyl)-N-(3-(methylsulfonyl)phenyl)imidazo[1,2-b]pyridazin-2-amine]: the 50% inhibitory concentration (IC50) in assay [1] came out at 3920 nM.
Take `CNc1cc(-c2c(Nc3cc[nH]n3)nc3cc(N4CCOCC4)cnn23)nc(C)n1` [Cpd 88, 3-(2-methyl-6-(methylamino)-4-pyrimidinyl)-7-(4-morpholinyl)-N-1H-pyrazol-3-ylimidazo[1,2-b]pyridazin-2-amine]: the IC50 in assay [1] was 1630 nM; on PI3Kα, 4500 nM.
`Cc1nc(N)cc(-c2c(Nc3cccc(NC(=O)NC4CC4)c3)nc3cccnn23)n1` [Cpd 316, 1-(3-((3-(6-amino-2-methyl-4-pyrimidinyl)imidazo[1,2-b]pyridazin-2-yl)amino)phenyl)-3-cyclopropylurea]: the IC50 in assay [1] turned out to be 950 nM.
As for `COCCNC(=O)n1ccc(Nc2nc3cccnn3c2-c2cc(N)nc(C)n2)n1` [Cpd 264], the IC50 in assay [1] came to 3150 nM; on PI3Kα, 33400 nM.
With `COc1ccc(Nc2nc3ccccn3c2-c2nc(C)nc(N)n2)cn1` [Cpd 4, 3-(4-amino-6-methyl-1,3,5-triazin-2-yl)-N-(6-methoxypyridin-3-yl)imidazo[1,2-a]pyridin-2-amine], the IC50 in assay [1] is 40 nM.
Regarding `Cc1nc(NCC(F)(F)F)cc(-c2c(Nc3ccn[nH]3)nc3cccnn23)n1` [Cpd 295, 3-(2-methyl-6-((2,2,2-trifluoroethyl)amino)-4-pyrimidinyl)-N-1H-pyrazol-5-ylimidazo[1,2-b]pyridazin-2-amine], the results for the half-inhibitory concentration (IC50) (in assay [1]; at PI3Kα) were 240 nM and 2980 nM, respectively.
Turning to `COCCN1CCN(c2ccc3nc(Nc4cnc(OC)c(F)c4)c(-c4nc(C)nc(N)n4)n3c2)CC1` [Cpd 29, 3-(4-amino-6-methyl-1,3,5-triazin-2-yl)-N-(5-fluoro-6-methoxy-3-pyridinyl)-6-(4-(2-methoxyethyl)-1-piperazinyl)imidazo[1,2-a]pyridin-2-amine], the IC50 in assay [1] is 26 nM.
For `Cc1nc(N)nc(-c2c(Nc3ccc4cccnc4c3)nc3ccc(N4CCN(C(=O)N(C)C)CC4)cn23)n1` [Cpd 277, 4-(3-(4-amino-6-methyl-1,3,5-triazin-2-yl)-2-(7-quinolinylamino)-imidazo[1,2-a]pyridin-6-yl)-N,N-dimethyl-1-piperazinecarboxamide], the figures for the IC50 (in assay [1]; at PI3Kα) were 140 nM and 40 nM, respectively.
`Cc1nc(N)cc(-c2c(Nc3ccn(C(=O)Nc4cc(C(F)(F)F)ccc4Cl)n3)nc3cccnn23)n1` [Cpd 246, 3-((3-(6-amino-2-methyl-4-pyrimidinyl)imidazo[1,2-b]pyridazin-2-yl)amino)-N-(2-chloro-5-(trifluoromethyl)phenyl)-1H-pyrazole-1-carboxamide]: the IC50 on PI3Kα stood at 15800 nM.
For the compound `CNC(=O)c1cccc(Nc2nc3cccnn3c2-c2cc(N)nc(C)n2)c1` [Cpd 334], the IC50 was 240 nM in assay [1] and 4940 nM at PI3Kα.
The like results for `Cc1nc(NC(=O)Cc2cccc(F)c2)cc(-c2c(Nc3ccn(C)n3)nc3ccccn23)n1` [Cpd 128] were, in that order, 3160 nM and 5030 nM.
On to `Cc1nc(N)cc(-c2c(Nc3cccc(NC(=O)Cc4ccccc4)c3)nc3ccccn23)n1` [Cpd 318, N-(3-((3-(6-amino-2-methyl-4-pyrimidinyl)imidazo[1,2-a]pyridin-2-yl)amino)phenyl)-2-phenylacetamide], for which the IC50 on PI3Kα turned out to be 12000 nM.
`Cc1nc(Nc2ccc(N3CCOCC3)nn2)cc(-c2c(Nc3ccn(C)n3)nc3cccnn23)n1` [Cpd 149, 3-(2-methyl-6-((6-(4-morpholinyl)-3-pyridazinyl)amino)-4-pyrimidinyl)-N-(1-methyl-1H-pyrazol-3-yl)imidazo[1,2-b]pyridazin-2-amine]: in assay [1], the 50% inhibitory concentration (IC50) stood at 280 nM.

These data come from US20120190666A1, “Heteroaryl Compounds as PIKK Inhibitors” (Amgen Inc., priority 2009, published 2012).
